Columns and labels:
mouse ENT-1 transporter = biological target: T1, mouse ENT-1 transporter (Mus musculus, UniProt Q9JIM1); assay: Adenosine transport activity (ENT1, [3H]-adenosine uptake inhibition); format: cell-based; conditions: stable cells expressing mouse ENT-1; [2,8-3H]-adenosine 6 nM, 20 min
T1 construct: expressed in transfected cells
T1 sequence (Q9JIM1 1-460): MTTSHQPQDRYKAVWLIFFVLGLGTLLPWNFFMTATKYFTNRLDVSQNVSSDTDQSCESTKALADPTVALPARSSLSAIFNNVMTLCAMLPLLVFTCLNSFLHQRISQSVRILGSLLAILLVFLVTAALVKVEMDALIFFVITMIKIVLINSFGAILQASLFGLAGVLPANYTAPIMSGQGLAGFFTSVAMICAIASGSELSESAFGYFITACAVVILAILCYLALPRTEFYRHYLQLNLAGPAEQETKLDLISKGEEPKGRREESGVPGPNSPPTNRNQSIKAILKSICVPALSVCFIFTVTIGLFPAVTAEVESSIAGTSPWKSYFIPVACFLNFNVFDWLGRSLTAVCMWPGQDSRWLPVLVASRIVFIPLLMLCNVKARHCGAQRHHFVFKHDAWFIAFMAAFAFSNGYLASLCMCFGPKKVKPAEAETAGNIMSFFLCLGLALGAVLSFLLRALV
Method: To measure adenosine transport activity of ENT-1 mammalian cells, stable cells expressing the mouse ENT-1 transporter were plated on day 1 in 96-well culture plates at the density of 60,000 cells/well, in complete DMEM/F12 medium supplemented with glutamax, 10% FBS and 10 μg/ml puromycin. On day 2, the medium was aspirated and the cells were washed twice with uptake buffer (10 mM Hepes-Tris, pH 7.4 containing 150 mM NaCl, 1 mM CaCl2, 2.5 mM KCl, 2.5 mM MgSO4, 10 mM D-glucose) (UB). For inhibition experiments, cells were then incubated at RT with various concentrations of compounds with 1% DMSO final. Non-specific uptake was defined in the presence of 10 μM S-(4-Nitrobenzyl)-6-thioinosine (NBTI, Sigma Cat #N2255). A solution containing [2,8-^3H]-adenosine 6 nM (40 Ci/mmol, American Radiolabeled chemicals Inc, Cat #ART 0287A) was then immediately added to the wells. The plates were then incubated for 20 min with gentle shaking and the reaction was stopped by aspiration of the mixture and washing (three times) with ice-cold UB. The cells were lysed by the addition of scintillation liquid, shaken 3 hours and the radioactivity in the cells was estimated using a microplates scintillation counter (TopCount NXT, Packard).

[1] = test system: L-687,414-induced hyperlocomotion; assay: L-687,414-induced hyperlocomotion; format: in vivo; conditions: Mus musculus; mice; dose 30 mg/kg ip, 15 min before 50 mg/kg s.c. L-687,414
Description: The authors described that hyperlocomotion induced by L-687,414 was inhibited by a series of known antipsychotic drugs. […] These findings predict antipsychotic activity for the present compounds, making them useful for the treatment of positive (psychosis) and negative symptoms of schizophrenia, substance abuse, alcohol and drug addiction, obsessive-compulsive disorders, cognitive impairment, bipolar disorders, mood disorders, major depression, resistant depression, anxiety disorders, Alzheimer's disease, autism, Parkinson's disease, chronic pain, borderline personality disorder, sleep disturbances, chronic fatigue syndrome, stiffness, antiinflammatory effects in arthritis and balance problems, and treatment of epilepsy and neurodevelopmental disorders with co-morbid epilepsy.
The described compounds of formula I reduce L-687,414-induced hyperlocomotion. This was assessed by using a computerized Digiscan 16 Animal Activity Monitoring System (Omnitech Electronics, Columbus, Ohio) to quantify locomotor activity. Animals were kept under a 12 h light/dark cycle and experiments were performed during the light period. Each activity monitoring chamber consisted of a Plexiglas box (41×41×28 cm; W×L×H) with sawdust bedding on the floor surrounded by invisible horizontal and vertical infrared sensor beams. The test boxes were divided by a Plexiglas cross providing each mouse with 20×20 cm of moving space. Cages were connected to a Digiscan Analyzer linked to a computer that constantly collected the beam status information. Records of photocell beam interruptions for individual animals were taken every 5 min over the duration of the experimental session and the sum of the first 6 periods was used as the final parameter. At least 8 mice were used in each treatment group. Compounds were administered i.p. 15 min before a s.c. injection of 50 mg/kg of L-687,414. Mice were then transferred from their home cage to the recording chambers for a 15-min habituation phase allowing free exploration of the new environment. Horizontal activity was then recorded for a 30-min time period. The % inhibition of L-687,414-induced hyperlocomotion was calculated according to the equation: ((Veh+L-687,414 horizontal activity−drug+L-687,414 horizontal activity)/Veh+L−687,414 horizontal activity)×100
ID50 values, defined as doses of each compound producing 50% inhibition of L-687,414-induced hyperlocomotion, were calculated by linear regression analysis of a dose-response data using an Excel-based computer-fitting program.
As data was not presupposed to be normally distributed, groups treated with test compounds were statistically compared with the control (vehicle-treated) group using one-tailed Mann Whitney U tests. In statistics, the Mann-Whitney Utest (also called the Mann-Whitney-Wilcoxon (MWW) or Wilcoxon rank-sum test) is a non-parametric statistical hypothesis test for assessing whether one of two samples of independent observations tends to have larger values than the other. It is one of the most well-known non-parametric significance tests. […] P values given in table 1 are one-tailed since only decreases in locomotion were expected and tested for (Mann, H. B., Whitney, D. R. (1947), “On a Test of Whether one of Two Random Variables is Stochastically Larger than the Other”, Annals of Mathematical Statistics, 18 (1), 50-60).

`Cc1ncc(-c2ccc3c(c2)N(c2cnc4[nH]c(=O)[nH]c4n2)C(=O)C3(C)C)cn1` [Example 36, 5-(3,3-Dimethyl-6-(2-methylpyrimidin-5-yl)-2-oxoindolin-1-yl)-1H-imidazo[4,5-b]pyrazin-2(3H)-one] showed an IC50 (mouse ENT-1 transporter) of 375 nM.

Work on `Cc1ncc(-c2ccc3c(c2)N(c2ccc4c(n2)NC(=O)C4(C)C)C(=O)C3(C)C)cn1` [Example 37, 6-(3,3-Dimethyl-6-(2-methylpyrimidin-5-yl)-2-oxoindolin-1-yl)-3,3-dimethyl-1H-pyrrolo[2,3-b]pyridin-2(3H)-one] yielded an IC50 (mouse ENT-1 transporter) of 6.7 nM.

For `Cc1ncc(-c2ccc3c(c2)N(c2cnc4c(c2)NC(=O)CO4)C(=O)C3(C)C)cn1` [Example 38, 7-(3,3-Dimethyl-6-(2-methylpyrimidin-5-yl)-2-oxoindolin-1-yl)-1H-pyrido[2,3-b][1,4]oxazin-2(3H)-one], the IC50 (mouse ENT-1 transporter) was 61.4 nM.

Compound `Cc1ncc(-c2ccc3c(c2)N(c2cc4c(cn2)C(C)(C)C(=O)N4C2CC2)C(=O)C3(C)C)cn1` [Example 40, 1-Cyclopropyl-6-(3,3-dimethyl-6-(2-methylpyrimidin-5-yl)-2-oxoindolin-1-yl)-3,3-dimethyl-1H-pyrrolo [3,2-c]pyridin-2(3H)-one] has an IC50 (mouse ENT-1 transporter) of 493 nM.

With `Cc1ncc(-c2ccc3c(c2)N(c2ccc4c(c2)N(C)C(=O)C4(C)C)C(=O)C3(C)C)cn1` [Example 41, 1′,3,3,3′,3′-Pentamethyl-6-(2-methylpyrimidin-5-yl)-[1,6′-biindoline]-2,2′-dione] the IC50 (mouse ENT-1 transporter) was 114 nM.

`COc1ccc(CN2C(=O)C(C)(C)c3ccc(N4C(=O)C(C)(C)c5ccc(-c6cnc(C)nc6)cc54)cc32)cc1` [Example 42, 1′-(4-Methoxybenzyl)-3,3,3′,3′-tetramethyl-6-(2-methylpyrimidin-5-yl)-[1,6′-biindoline]-2,2′-dione] was tested, and the IC50 (mouse ENT-1 transporter) was 193 nM.

Compound `Cc1ncc(-c2ccc3c(c2)N(c2cc4c(cn2)C(C)(C)C(=O)N4)C(=O)C3(C)C)cn1` [Example 43, 6-(3,3-Dimethyl-6-(2-methylpyrimidin-5-yl)-2-oxoindolin-1-yl)-3,3-dimethyl-1H-pyrrolo[3,2-c]pyridin-2(3H)-one] has an IC50 (mouse ENT-1 transporter) of 385 nM.

Work on `Cc1ncc(-c2ccc3c(c2)N(c2ccc4c(c2)NC(=O)C4(C)C)C(=O)C3(C)C)cn1` [Example 44, 3,3,3′,3′-Tetramethyl-6-(2-methylpyrimidin-5-yl)-[1,6′-biindoline]-2,2′-dione] yielded an IC50 (mouse ENT-1 transporter) of 128 nM.

Work on `Cc1ncc(-c2ccc3c(c2)N(c2ccc4oc(C)nc4n2)C(=O)C3(C)C)cn1` [Example 45, 3,3-Dimethyl-1-(2-methyloxazolo[4,5-b]pyridin-5-yl)-6-(2-methylpyrimidin-5-yl)indolin-2-one] yielded an IC50 (mouse ENT-1 transporter) of 593 nM.

With `Cc1ncc(-c2ccc3c(c2)N(c2ccc4c(c2F)N(C)C(=O)C4(C)C)C(=O)C3(C)C)cn1` [Example 46, 7′-Fluoro-1′,3,3,3′,3′-pentamethyl-6-(2-methylpyrimidin-5-yl)-[1,6′-biindoline]-2,2′-dione] the IC50 (mouse ENT-1 transporter) was 244 nM.

`Cc1ncc(-c2ccc3c(c2)N(c2ccc4c(c2)N(C)C(=O)CO4)C(=O)C3(C)C)cn1` [Example 47, 6-(3,3-Dimethyl-6-(2-methylpyrimidin-5-yl)-2-oxoindolin-1-yl)-4-methyl-2H-benzo[b][1,4]oxazin-3(4H)-one] showed an IC50 (mouse ENT-1 transporter) of 14.2 nM and an inhibition in vivo at 30 mg/kg [1] of 93.8%.

Work on `Cc1ncc(-c2ccc3c(c2)N(c2ccc4nnn(C)c4c2)C(=O)C3(C)C)cn1` [Example 48, 3,3-Dimethyl-1-(1-methyl-1H-benzo[d][1,2,3]triazol-6-yl)-6-(2-methylpyrimidin-5-yl)indolin-2-one] yielded an IC50 (mouse ENT-1 transporter) of 184 nM.

`Cc1ncc(-c2ccc3c(c2)N(c2cnc(N4CCOCC4)cn2)C(=O)C3(C)C)cn1` [Example 49, 3,3-Dimethyl-6-(2-methylpyrimidin-5-yl)-1-(5-morpholinopyrazin-2-yl)indolin-2-one] was tested, and the IC50 (mouse ENT-1 transporter) was 415 nM.

For `Cc1ncc(-c2ccc3c(c2)N(c2cnc(N4[C@@H]5COC[C@H]4C5)cn2)C(=O)C3(C)C)cn1` [Example 51, 1-(5-((1R,5S)-3-Oxa-6-azabicyclo[3.1.1]heptan-6-yl)pyrazin-2-yl)-3,3-dimethyl-6-(2-methylpyrimidin-5-yl)indolin-2-one], the IC50 (mouse ENT-1 transporter) was 227 nM.

`Cc1ncc(-c2ccc3c(c2)N(c2cnc(NCCO)cn2)C(=O)C3(C)C)cn1` [Example 52, 1-(5-((2-Hydroxyethyl)amino)pyrazin-2-yl)-3,3-dimethyl-6-(2-methylpyrimidin-5-yl)indolin-2-one] was tested, and the IC50 (mouse ENT-1 transporter) was 239 nM.

With `Cc1ncc(-c2ccc3c(c2)N(c2cc4c(nn2)N(C2CC2)C(=O)C4(C)C)C(=O)C3(C)C)cn1` [Example 53, 7-Cyclopropyl-3-(3,3-dimethyl-6-(2-methylpyrimidin-5-yl)-2-oxoindolin-1-yl)-5,5-dimethyl-5H-pyrrolo[2,3-c]pyridazin-6(7H)-one] the IC50 (mouse ENT-1 transporter) was 993 nM.

In the case of `Cc1ncc(-c2ccc3c(c2)N(c2cncc(N4CC(C)(C)OC4=O)n2)C(=O)C3(C)C)cn1` [Example 56, 3-(6-(3,3-Dimethyl-6-(2-methylpyrimidin-5-yl)-2-oxoindolin-1-yl)pyrazin-2-yl)-5,5-dimethyloxazolidin-2-one], the IC50 (mouse ENT-1 transporter) is reported as 202 nM.

`Cc1ncc(-c2ccc3c(c2)N(c2cncc(N4CCCS4(=O)=O)n2)C(=O)C3(C)C)cn1` [Example 57, 1-(6-(1,1-Dioxidoisothiazolidin-2-yl)pyrazin-2-yl)-3,3-dimethyl-6-(2-methylpyrimidin-5-yl)indolin-2-one] was tested, and the IC50 (mouse ENT-1 transporter) was 60.8 nM.

Work on `Cc1ncc(-c2ccc3c(c2)N(c2ccc4cc[nH]c4n2)C(=O)C3(C)C)cn1` [Example 58, 3,3-Dimethyl-6-(2-methylpyrimidin-5-yl)-1-(1H-pyrrolo [2,3-b]pyridin-6-yl)indolin-2-one] yielded an IC50 (mouse ENT-1 transporter) of 243 nM.

With `Cc1ncc(-c2ccc3c(c2)N(c2ccc4c(c2)N(C2COC2)C(=O)C4(C)C)C(=O)C3(C)C)cn1` [Example 59, 3,3,3′,3′-Tetramethyl-6-(2-methylpyrimidin-5-yl)-1′-(oxetan-3-yl)-[1,6′-biindoline]-2,2′-dione] the IC50 (mouse ENT-1 transporter) was 203 nM.

In the case of `Cc1ncc(-c2ccc3c(c2)N(c2ccc4cnn(C)c4c2)C(=O)C3(C)C)cn1` [Example 60, 3,3-Dimethyl-1-(1-methyl-1H-indazol-6-yl)-6-(2-methylpyrimidin-5-yl)indolin-2-one], the IC50 (mouse ENT-1 transporter) is reported as 37.7 nM.

For `Cc1ncc(-c2ccc3c(c2)N(c2ccc4c(C)nn(C)c4n2)C(=O)C3(C)C)cn1` [Example 61, 1-(1,3-Dimethyl-1H-pyrazolo[3,4-b]pyridin-6-yl)-3,3-dimethyl-6-(2-methylpyrimidin-5-yl)indolin-2-one], the IC50 (mouse ENT-1 transporter) was 202 nM.

`Cc1ncc(-c2ccc3c(c2)N(c2ccc4ccn(C)c4c2)C(=O)C3(C)C)cn1` [Example 62, 3,3-Dimethyl-1-(1-methyl-1H-indol-6-yl)-6-(2-methylpyrimidin-5-yl)indolin-2-one] was tested, and the IC50 (mouse ENT-1 transporter) was 428 nM.
